Reference: the supplement of paper PMC10331698
± gives the standard deviation of the averaged measurements.

What was measured:
Test in all cases: LOEC (log10 uM (lowest observed effect concentration))
[1] = compound: O=S(=O)(Cl)C(F)(F)C(F)(F)C(F)(F)C(F)(F)C(F)(F)C(F)(F)C(F)(F)C(F)(F)F [Perfluoro-1-octanesulfonyl chloride]
Method: (§1)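 BioMAP Diversity Plus panel in human primary cell co-cultures, 4 concentrations in duplicate blinded samples. Responses are log10 fold change versus DMSO control, processed with tcpl v2.1.0. A hit is called when responses at any concentration exceed the cutoff (the larger of 3*bmad or log10(1.2)); the lowest observed effect concentration (modl_ga, log10 uM) is reported for hits.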

[2] = compound: C=CC(=O)OCC(F)(F)C(F)(F)C(F)(F)COC(=O)C=C [1H,1H,5H,5H-Perfluoro-1,5-pentanediol diacrylate]
Method: as §1

[3] = compound: NS(=O)(=O)C(F)(F)C(F)(F)C(F)(F)C(F)(F)C(F)(F)C(F)(F)F [Perfluorohexanesulfonamide]
Method: as §1

[4] = compound: O=C(O)C(F)(F)C(F)(F)C(F)(F)C(F)(F)C(F)(F)C(F)(F)C(F)(F)C(F)(F)C(F)(F)C(F)F [11-H-Perfluoroundecanoic acid]
Method: as §1

[5] = compound: COC(=O)C(F)(F)C(F)(F)OC(F)(C(F)(F)F)C(F)(F)OC(F)=C(F)F [Methyl perfluoro(3-(1-ethenyloxypropan-2-yloxy)propanoate)]
Method: as §1

Test System | LOEC (log10 uM) [1] | LOEC (log10 uM) [2] | LOEC (log10 uM) [3] | LOEC (log10 uM) [4] | LOEC (log10 uM) [5]
3C Eselectin up | 1.78 | – | – | – | –
3C HLADR down | – | 1.07 ± 0.32 | 1.78 | – | –
3C IL8 up | 1.78 | – | – | – | –
3C MCP1 down | – | 1.3 | – | 1.78 | –
3C Proliferation down | – | 0.301 | 1.78 | 1.78 | –
3C SRB down | 1.78 | 1.3 | 1.78 | 1.78 | –
3C Thrombomodulin up | 1.78 | 1.3 | – | 1.78 | –
3C uPAR down | 1.78 | 1.78 | – | – | –
4H Eotaxin3 down | – | 0.845 | 1.78 | 1.78 | –
4H SRB down | – | 1.3 | 1.78 | 1.78 | –
4H VCAM1 down | – | 1.3 | – | 1.78 | –
BE3C EGFR down | 1.78 | – | – | 1.3 | –
BE3C HLADR down | 1.78 | 1.3 | – | 1.3 | –
BE3C ICAM1 down | 1.78 | 1.3 | – | 1.3 | –
BE3C IL1a down | 1.78 | 1.3 | – | 1.3 | –
BE3C IL8 down | 1.78 | 1.3 | 1.3 | – | –
BE3C IP10 down | 1.3 | 1.54 ± 0.34 | 1.54 ± 0.34 | 0.845 | –
BE3C ITAC down | 1.78 | 1.78 | – | 1.3 | 0.845
BE3C Keratin818 down | – | – | – | 1.54 ± 0.34 | –
BE3C MIG down | 1.78 | 1.78 | – | 1.3 | –
BE3C MMP9 down | 1.78 | 1.3 | 1.78 | 1.07 ± 0.32 | –
BE3C PAI1 down | 1.78 | – | 1.54 ± 0.34 | 1.3 | –
BE3C SRB down | 1.78 | – | – | 1.3 | –
BE3C uPA down | 1.78 | 1.78 | – | 1.3 | –

Test System | LOEC (log10 uM) [1] | LOEC (log10 uM) [2] | LOEC (log10 uM) [3] | LOEC (log10 uM) [4] | LOEC (log10 uM) [5]
BE3C uPAR down | 1.78 | 1.78 | 1.78 | 1.3 | –
BF4T CD90 down | – | – | – | 1.54 ± 0.34 | –
BF4T Eotaxin3 down | 1.78 | 1.78 | – | 0.801 ± 0.71 | –
BF4T ICAM1 down | 1.78 | 1.07 ± 0.32 | – | 1.3 | –
BF4T IL1a down | 1.78 | 1.78 | – | 1.54 ± 0.34 | –
BF4T Keratin818 down | – | 1.78 | – | 1.78 | –
BF4T MCP1 down | 1.78 | 1.3 | 1.78 | 0.573 ± 0.39 | –
BF4T MMP3 down | – | – | – | 1.78 | –
BF4T MMP3 up | – | – | – | – | 0.845
BF4T MMP9 down | 1.78 | 1.3 | – | 1.3 | –
BF4T PAI1 down | 1.78 | 1.3 | – | 0.801 ± 0.71 | –
BF4T SRB down | 1.78 | 1.78 | – | 1.3 | –
BF4T VCAM1 down | – | 1.3 | 1.54 ± 0.34 | – | –
BF4T tPA down | 1.54 ± 0.34 | 1.3 | – | 0.845 | –
BF4T uPA down | 1.78 | 1.78 | – | 1.78 | –
BT Bcell Proliferation up | 1.78 | – | – | – | –
BT PBMCCytotoxicity up | 1.78 | – | – | 1.78 | –
IMphg CD40 down | – | 1.3 | 1.78 | – | –
IMphg CD69 down | – | 1.78 | 1.78 | – | –
IMphg ESelectin down | – | 1.3 | 1.78 | – | –
IMphg IL10 down | 1.78 | 1.3 | 1.78 | 1.78 | –
IMphg MCP1 down | – | 1.3 | 1.78 | 1.78 | –
IMphg MCSF down | – | – | 1.07 ± 0.32 | – | –
IMphg SRB down | – | – | – | 1.78 | –

Test System | LOEC (log10 uM) [1] | LOEC (log10 uM) [2] | LOEC (log10 uM) [3] | LOEC (log10 uM) [4] | LOEC (log10 uM) [5]
IMphg SRB.Mphg down | – | 1.78 | – | 1.78 | –
IMphg VCAM1 down | – | 1.07 ± 0.32 | – | 1.78 | –
KF3CT IL1a down | – | 0.573 ± 0.39 | – | 1.78 | –
KF3CT IP10 down | 1.78 | 1.3 | 1.78 | 1.3 | –
KF3CT MCP1 down | – | 1.3 | – | 1.3 | –
KF3CT MIG down | – | 1.3 | – | 1.78 | –
KF3CT MMP9 down | 1.78 | 1.3 | – | 1.3 | –
KF3CT PAI1 down | 1.3 | 1.3 | – | 1.3 | –
KF3CT SRB down | – | 1.3 | – | 1.78 | –
KF3CT uPA down | – | 1.3 | – | 1.78 | –
LPS CD40 down | – | 0.845 | 1.78 | 1.78 | –
LPS CD69 down | – | 1.3 | 1.78 | 1.78 | –
LPS Eselectin down | – | 1.3 | – | 1.78 | –
LPS MCP1 down | – | 1.3 | – | 1.78 | –
LPS PGE2 down | 1.78 | 1.3 | – | 1.78 | –
LPS PGE2 up | – | – | 1.54 ± 0.34 | – | –
LPS SRB down | – | 1.3 | – | 1.78 | –
LPS Thrombomodulin up | – | 1.3 | – | 1.31 ± 0.66 | –
LPS VCAM1 down | – | 1.07 ± 0.32 | 1.78 | 1.78 | –
MyoF PAI1 down | – | 1.3 | – | 1.78 | –
SAg CD38 down | – | 1.07 ± 0.32 | – | 1.78 | –
SAg CD40 down | – | 0.845 | 1.78 | 1.78 | –
SAg CD69 down | – | 0.845 | 1.78 | 1.78 | –
SAg Eselectin down | – | 0.845 | 1.78 | 1.78 | –

Test System | LOEC (log10 uM) [1] | LOEC (log10 uM) [2] | LOEC (log10 uM) [3] | LOEC (log10 uM) [4] | LOEC (log10 uM) [5]
SAg Eselectin up | 1.78 | – | – | – | –
SAg IL8 down | – | 0.845 | 1.78 | 1.78 | –
SAg MCP1 down | – | 0.845 | – | 1.78 | –
SAg MIG down | – | 1.3 | – | – | –
SAg PBMCCytotoxicity down | – | 0.845 | – | – | –
SAg PBMCCytotoxicity up | – | – | 1.78 | – | –
SAg Proliferation down | – | 0.301 | – | 1.78 | –
SAg SRB down | 1.78 | 1.3 | – | 1.78 | –
hDFCGF CollagenIII down | – | 0.573 ± 0.39 | – | 0.845 | –
hDFCGF ICAM1 down | – | 0.301 | – | – | –
hDFCGF IL8 down | – | 0.845 | – | – | –
hDFCGF MCP1 down | – | 0.301 | – | 1.78 | –
hDFCGF MCP1 up | – | – | 1.78 | – | –
hDFCGF MCSF down | – | 0.301 | – | 1.54 ± 0.34 | –
hDFCGF MIG down | – | 0.301 | – | 0.573 ± 0.39 | –
hDFCGF MMP1 down | – | 0.845 | – | – | –
hDFCGF PAI1 down | – | 0.845 | – | 1.78 | –
hDFCGF Proliferation down | – | 0.301 | 1.78 | 0.845 | –
hDFCGF SRB down | – | 0.573 ± 0.39 | – | – | –
hDFCGF SRB up | – | – | – | – | 0.301
hDFCGF TIMP1 down | – | 0.573 ± 0.39 | – | – | –
hDFCGF TIMP2 down | – | – | 1.78 | – | –
hDFCGF VCAM1 down | – | 0.301 | – | 0.801 ± 0.71 | 0.845
